Reference: patent US10450327B2, “Epidithiodioxopiperazine compound or its derivatives, and the use thereof” (priority 2011, dated 2019)

What was measured:
VEGFR2 and ERK = experiment: VEGF-induced signaling, immunoblot, PrxII knocked down HAECs; type: cell-based, human; details: 2 hours pretreatment, VEGF 10 minutes
Procedure: The cells were rinsed with an ice-cold phosphate buffered saline (PBS) solution and then lysed in an extraction buffer solution containing 20 mM Hepes (pH 7.0), 1% Triton X-100, 150 mM NaCl, 10% glycerol, 1 mM EDTA, 2 mM EGTA, 1 mM DTT, 5 mM Na3VO4, 5 mM NaF, 1 mM AEBSF, aprotinin (5 μg/ml), and leupeptin (5 μg/ml). After being centrifuged at 12,000×g, the purified cell extracts were used for immunoblotting. In order to adjust the loading, the membranes were stripped by shaking them for 30 minutes at 60° C. in 67 mM Tris (pH 6.7), 2% SDS, and 100 mM 2-mercaptoethanol solution, and reprobed with an appropriate pan antibody.
In addition, the regulatory effects of GT on the PDGFRβ- and VEGFR2-mediated signaling pathway were examined. The GT treatment in HASMCs was quite different from PDGF-induced tyrosine phosphorylation that was enhanced by the PrxII knockdown (FIG. 12a). […] Conversely, the GT treatment in HAECs restored the VEGF-dependent activation of VEGFR2 and ERK that had been diminished by the PrxII knockdown (FIG. 12b). The effects of GT in vascular cell fuction were further validated.
Lastly, the effects of GT, a representative ETP compound, on vascular cells were compared with the effects of other compounds known as anti-oxidant compounds such as N-acetylcysteine or butylated hydroxyanisole, and the results are shown in FIG. 33. Immunoblotting was performed by pretreating HAECs in which PrxII was knocked down by injecting siRNA with each compound at the concentrations indicated in the graphs for two hours, and then treating with VEGF for 10 minutes. […] These comparative experiments led the inventors of the present invention to conclude that the distinguished […] function of the ETP compounds is clearly due to the PrxII-analogous activity, and additionally to the special chemical property of the dithioketopiperazine ring.

HASMCs = type: cell-based, human; details: up to 100 nM (200 nM for A4, A7, A9)
NADPH oxidase (NOX) = experiment: NADPH oxidase activity assay (whole cell superoxide production); type: cell-based, human; details: HASMCs with PDGF-B and HAECs with VEGF-A; until concentrations increased up to 500 nM
Procedure: Whole cell superoxide production was measured using an enhanced luminescence system (Diogenes, National Diagnostics). For the assay, the serum-starved cells were pre-incubated with a 100 μl Diogene reagent at 37° C. for 5 minutes. After being stimulated by the indicated growth factor, chemiluminescence was detected every second for 10 minutes with a TD-20/20 Luminometer (Turner Biosystems).
When HASMCs and HAECs were stimulated with PDGF-B and VEGF-A, respectively, the NOX activity increased approximately twofold. […] Thus, it was seen that these ETP compounds function as hydrogen peroxide reductase capable of replacing PrxII in both vascular cells, but the mechanism was not the inhibition of hydrogen peroxide producer NOX.

SK-MEL-5 (SK5) cells = experiment: Melanoma proliferation and migration assay, SK5; type: cell-based, human; details: 100 nM, 1 hour pretreatment
Procedure: (§1) The extent of cell proliferation was measured using a WST-1 cell proliferation assay kit (Roche Diagnostics, USA) according to the protocol of the manufacturer. The number of cells was expressed as an absorbance value at 450 nm averaged from 3 wells after subtracting the turbidity at 600 nm. The chemotactic transmigration assay was performed in a 24-well Transwell culture chamber (Costar; polycarbonate membrane insert with 8-μm pore size). The bottom of the insert was coated with gelatin B (1 mg/ml) and air-dried for 1 hour. Retroviruses or transfection complexes were treated to melanoma cells (6×10^3). After 24 hours, the infected or transfected melanoma cells were serum-starved for 18 hours. A 20% FBS solution was added to bottom chambers including a basal medium containing 0.5% BSA. The upper chamber wells were each filled with a basal medium including 0.5% BSA. The Transwell chamber was incubated for 12 hours in a 37° C./5% CO2 incubator. After the incubation, the non-migrating cells at the top of the filter were removed. The cells that migrated onto the bottom of filter were fixed and stained with 0.6% hematoxylin and 0.5% eosin. The stained cells were photographed and counted. The number of migrating cells was averaged from 3 wells.

SK-MEL-28 (SK28) cells = experiment: Melanoma proliferation and migration assay, SK28; type: cell-based, human; details: 100 nM, 1 hour pretreatment
Procedure: as §1, with “wells. […]” for “wells.”

B16F10 melanoma cells = experiment: Metastasis of B16F10 melanoma cells to lung in mouse; type: in vivo
Procedure: After B16F10 cells were temporarily transfected with PrxII siRNA for 24 hours and trypsinized, the cells were resuspended in a Hank's balanced salt solution (HBSS). The cell suspension was injected by intravenous injection to a C57/BL6 mouse (1×10^6 cells per mouse). The mouse was sacrified after 10 days, and the lung was removed after transcardia perfusion-fixation with a heparinized saline solution including 3.7% formaldehyde. The removed lung was paraffin embedded and sectioned using a rotary microtome (Leica RM2255). Two serial tissue sections (4 μm in thickness) were stained with haematoxylin and eosin. The melanoma tumor nodules metastasized from the surface of the lung and the HE-stained tissue sections were counted. In order to verify the effects of gliotoxin (GT), chaetocin and chetomin, the melanoma cells were intravenously injected to the C57/BL6 mouse, and then gliotoxin (300 mg/kg) was intraperitoneally injected for 5 times over 10 days.

Structure (SMILES): CN1C(=O)[C@]23CC4=CC=C[C@H](O)[C@H]4N2C(=O)[C@@]1(CO)SS3 [gliotoxin]
- VEGF-dependent activation of VEGFR2 and ERK (VEGFR2 and ERK): restored
- proliferation and chemotactic transmigration of HASMCs in response to PDGF, enhanced by PrxII knockdown (HASMCs): gradually reduced
- NOX activity (NADPH oxidase (NOX)): did not inhibit
- proliferation and migration responding to serum stimulation, SK5 (SK-MEL-5 (SK5) cells): reduced
- proliferation and migration responding to serum stimulation, SK28 (SK-MEL-28 (SK28) cells): reduced
- metastasis of B16F10 melanoma cells to lung (tumor nodules) (B16F10 melanoma cells; i.p. 5 times over 10 days after i.v. injection of B16F10 cells): significantly reduced
- metastasis of PrxII-knocked down B16F10 to lung (B16F10 melanoma cells; mPrx2-1 siRNA-transfected cells, i.p. 5 times over 10 days): more significantly reduced
